Data from patent US9278982B2, “Targeting human thymidylate kinase induces DNA repair toxicity in malignant tumor cells” (NATIONAL YANG-MING UNIVERSITY, priority 2010, dated 2016).

Tests used:
[1] = tested on: various cancer cell lines; assay: Colony formation assay after YMU1 and doxorubicin; type: cell-based, human; conditions: YMU1 72 h, doxorubicin 0.1 μM 4 h, 14 days of culture
Procedure: (§1) FIG. 16. In vitro and in vivo effect of YMU1 on doxorubicin sensitization. (A) A panel of cell lines were pre-treated with vehicle, YMU1 (compound 21), D6 (ethyl 4-(2-chloroacetyl)piperazine-1-carboxylate) or D7 (compound 28) for 3 days and were exposed to different concentration of doxorubicin for 4 h. […] The enhancement (fold) of doxorubicin sensitivity in each cell line was calculated. Data represent mean±s.d., n=3; each experiment was quadruplex. Inset indicates the IC50 value of doxorubicin in various cell lines. […] Following overnight culture, cells were refreshed with growth medium. After 14 days of culture, colonies were fixed, stained by crystal violet and counted. (C) HCT-116 p53^−/− cells were subcutaneously implanted in the right flank of Balb/c nude mice (each experimental group n=8). Arrow indicated the time of stopping drug treatment. The tumor volume was estimated as described in Methods of the Invention section. (D) After 2 weeks recovered from treatment, mice were sacrificed for tumor weight measurement. Data represent mean±s.e.m; **, P<0.01 by a two-tailed Student's t-test. (E) Ki 67 proliferation marker staining of tumor shown in left panel. Scale bar, 50 μm. (F) Model of doxorubicin sensitization by YMU1 in malignant cancer cells. […]

HCT-116 p53−/− cells = assay: In vivo xenograft model, sensitization to low-dose doxorubicin; set-up: species or system Balb/c nude mice
Procedure: as §1
We also used an in vivo xenograft model to examine the effect of YMU1 as an adjuvant on sensitization to low-dose doxorubicin treatment. […] Two weeks after the last injections were administered, mice were sacrificed and tumor weights measured. […]
Female BALB/c AnN.Cg-Foxnl^nu/Crl Nurl mice 6-8 weeks of age (National Laboratory Animal Center, Taiwan) were used for the tumor xenograft model. […] The tumor size was measured every day after initiated drug treatment with an electronic caliper. […]
Monoclonal Ki 67 antibody (B56) was purchased from BD PharMingen. Paraffin-embedded tumor sections (5 μm) were incubated with the primary antibody, detected with a LSAB™ kit (DakoCytomation) according to the manufacturer's instructions and counterstained with hematoxylin.

CCOC(=O)N1CCN(C(=O)Cn2sc3nc(C)cc(C)c3c2=O)CC1 [compound 21, Ethyl 4-(2-(4,6-dimethyl-3-oxoisothiazolo[5,4-b]pyridin-2(3H)-yl)acetyl) piperazine-1-carboxylate]
lethal effects of doxorubicin (colony assay) [1]: markedly enhanced the lethal effects of doxorubicin
growth of tumors, YMU1 combined with doxorubicin (HCT-116 p53−/− cells; YMU1 15 mg/kg thrice a week + doxorubicin 1.25 mg/kg twice a week, i.p., 4 weeks): much slower
tumor proliferation index (Ki 67 immunostaining), YMU1 combined with doxorubicin (HCT-116 p53−/− cells; combinatory treatment of YMU1 and doxorubicin): clearly reduced
average tumor size relative to control mice, YMU1 combined with doxorubicin (HCT-116 p53−/− cells; two weeks after the last injections, YMU1 15 mg/kg thrice a week + doxorubicin 1.25 mg/kg twice a week, i.p.): 25%
